Measured values: patent US20190029301A1, “USE OF LONG-TERM FASTING MIMICKING AS DIETARY TREATMENT FOR MULTIPLE MYELOMA AND OTHER CANCERS” (UNIVERSITY OF SOUTHERN CALIFORNIA, priority 2016, published 2019)

Experiments:
[1] = test system: multiple myeloma; details: cited from earlier work
[2] = test system: multiple myeloma; assay: free kappa light chain tumor marker in a multiple myeloma patient (case report); format: in vivo, human; details: for response of free kappa light chain tumor marker / myeloma cells to the regimen: single patient, successive regimens 2006-2012 and later
[3] = cited from earlier work
[4] = side effects / peripheral neuropathy in the treated multiple myeloma patient; format: in vivo, human
Description: The patient had previously only used IV bortezomib, since it had been effective up to that point. Resistance to bortezomib is thought to result from overproduction of proteosomal subunits, that then require a higher concentration of drug before enough subunits are blocked to reduce the degradation of misfolded myeloma antibodies. The highest recommended dose of bortezomib is 1.3 mg/m^2, since the next higher dose of 1.7 mg/m^2 regularly produces grade 3-4 peripheral neuropathy. […] The patient reasoned that reducing the toxicity of bortezomib by using SubQ rather than IV and using the FMED to induce protective stress-resistance pathways in their neural and supporting glial cells might allow the use of “toxic” doses of bortezomib. […] The first two cycles were performed to verify whether the approach worked. […] Since the “toxic” bortezomib dose was essentially monotherapy, a different IMID was added for a third cycle in the hope that the patient's MM cells would be sensitive and one would be treating with at least two drugs. One third of patients resistant to lenalidomide respond to pomalidomide, which was thus added during the third cycle.

[5] = Biaxin competes for the liver detoxification system that inactivates dexamethasone; cited from earlier work
[6] = SubQ compared with IV bortezomib

CC(C)C[C@H](NC(=O)[C@H](Cc1ccccc1)NC(=O)c1cnccn1)B(O)O [bortezomib]
effectiveness of SubQ versus IV administration [1, 6]: as effective as IV bortezomib
tumor markers response ([2]; SubQ bortezomib at "toxic" dose 1.7 mg/m^2 combined with FMED, FIG. 3): rapid drop
bortezomib sensitivity ([2]; subcutaneous bortezomib 1.7 mg/m^2 with FMED, bortezomib-resistant patient): restore bortezomib sensitivity
side effects of SubQ versus IV administration [3, 6]: reduced side effects
peripheral neuropathy grade ([3]; dose of 1.7 mg/m^2): 3-4
side-effects ([4]; subcutaneous bortezomib 1.7 mg/m^2 with FMED): minimal side-effects
peripheral neuropathy progression ([4]; three cycles of SubQ "toxic" bortezomib + FMED (pomalidomide added in third cycle)): only minor progression

CC[C@H]1OC(=O)[C@H](C)[C@@H](O[C@H]2C[C@@](C)(OC)[C@@H](O)[C@H](C)O2)[C@H](C)[C@@H](O[C@@H]2O[C@H](C)C[C@H](N(C)C)[C@H]2O)[C@](C)(OC)C[C@@H](C)C(=O)[C@H](C)[C@@H](O)[C@]1(C)O [Biaxin]
half-life of dexamethasone [5]: increases

CC(C)C[C@H](NC(=O)[C@H](CCc1ccccc1)NC(=O)CN1CCOCC1)C(=O)N[C@@H](Cc1ccccc1)C(=O)N[C@@H](CC(C)C)C(=O)[C@@]1(C)CO1 [carfilzomib]
response of free kappa light chain tumor marker / myeloma cells to the regimen [2]: ineffective

Nc1cccc2c1CN(C1CCC(=O)NC1=O)C2=O (centres unmarked) [revlimid, lenalidomide]
response of free kappa light chain tumor marker / myeloma cells to the regimen [2]: developed resistance

Nc1cccc2c1C(=O)N(C1CCC(=O)NC1=O)C2=O (centres unmarked) [pomalidomide]
fraction of patients resistant to lenalidomide that respond ([1]; lenalidomide-resistant patients): One third
